What was measured:
NCI 60 cell lines = assay: NCI 60 tumor cell line panel (SRB); format: cell-based, human; settings: concentration of 10 μM, 48 h, FIG. 3
Method: Compound I-43b has been tested in the NCI 60 cell line panel. This screen utilizes 60 different human tumor cell lines, representing leukemia, melanoma, lung cancer, colon cancer, CNS cancer, ovarian cancer, breast cancer, prostate cancer and renal cancer.
The 60 human tumor cell lines of the cancer screening panel are grown in RPMI 1640 medium containing 5% fetal bovine serum and 2 mM L-glutamine. For a typical screening experiment, cells are inoculated into 96 well microtiter plates in 100 μL at plating densities ranging from 5,000 to 40,000 cells/well depending on the doubling time of individual cell lines. […]
Following drug addition, the plates are incubated for an additional 48 h at 37° C., 5% CO2, 95% air, and 100% relative humidity. […] Bound stain is subsequently solubilized with 10 mM trizma base, and the absorbance is read on an automated plate reader at a wavelength of 515 nm. […] Using the seven absorbance measurements [time zero (Tz), control growth (C), and test growth in the presence of drug at the five concentration levels (Ti)], the percentage growth is calculated at each of the drug concentrations levels. Percentage growth inhibition is calculated as: [(Ti−Tz)/(C−Tz)]×100 for concentrations for which Ti>/=Tz [(Ti−Tz)/Tz]×100 for concentrations for which Ti<Tz.
Three dose response parameters are calculated for each experimental agent. […]

[1] = tested on: 3 human cancer cell lines established from Head & Neck (HNSCC); assay: MTT cell proliferation assay on HNSCC cell lines; format: cell-based; settings: MTT assay after 72 hours of treatment, FIG. 2
Method: (§1) Compound I-43b has been tested in 3 human cancer cell lines established from Head & Neck (HNSCC) and in 4 human cancer cell lines established hepatocarcinoma (HCC). […] Cell proliferation has been evaluated using the MTT assay after 72 hours of treatment.

[2] = tested on: 4 human cancer cell lines established hepatocarcinoma (HCC); assay: MTT cell proliferation assay on HCC cell lines; format: cell-based; settings: MTT assay after 72 hours of treatment, FIG. 2
Method: as §1

Question: Which “growth inhibition of NCI 60 tumor cell lines, single dose screen” value (NCI 60 cell lines) does the source give for `Cc1cc(Oc2ccccc2)ccc1N(C(=O)CCl)[C@H](C(=O)N1CCN[C@@H](C)C1)c1cccs1` (single isomer, unassigned) [Example I-43b] here?
Answer: selective growth inhibition on all these tumor cell lines

Question: What about the “cell proliferation inhibition, HNSCC cell lines” value [1] of the same compound?
Answer: inhibited cell proliferation in a concentration dependent manner

Question: What about the “cell proliferation inhibition, HCC cell lines” value [2] of the same compound?
Answer: inhibited cell proliferation in a concentration dependent manner

— patent US9877962B2, “Piperazinyl derivatives for the treatment of cancer” (priority 2011, dated 2018)
